Laboratory results: US10264789B2, “Rodentia animal repellent” (SUMITOMO CHEMICAL COMPANY, LIMITED, priority 2014, dated 2019)

Tested on: female mouse (Jcl: ICR lineage)
Experiment: Repellent test (Experimental Example 1, two-section feed choice apparatus)
Format: in vivo
Details: drug amount 0.5 g on one sheet of filter paper
Protocol: Experimental Example 1 (Test Animal: Mouse)
The repellent test was performed using the repellent test apparatus described in FIG. 1. The apparatus has a residential section for the test animal in the center part, test section 1 and test section 2 setting food on both ends, test section 1 and the residential section are connected by a cylindrical path (diameter 0.05 m, length 2.08 m), and test section 2 and the residential section are also connected by a cylindrical path. The test section 1 and test section 2 are resin cuboid shape (0.68 m×0.40 m×0.32 m) containers, and the connection parts with the paths are opened. The residential section is also a resin cuboid shape (0.28 m×0.45 m×0.16 m), and the upper part made of an iron net so that the air can be taken in. An openable door is set in the connection part between the residential section and the path. Chips for floor:clean chip SP (manufactured by CLEA Japan, Inc.) were spread all over the bottom part of the residential section.
An acclimation operation was performed before the repellent test to make the test animal experienced with the test apparatus.
A weighed feed (solid food CE-2 for breeding and raising, manufactured by CLEA Japan, Inc.) (initial feed weight about 10 g) was set in each of test section 1 and test section 2, one female mouse (Jcl: ICR lineage) was placed in the residential section. One day later, the feed remaining in both test sections was weighed, and the eating rate was calculated by the following formula. When the eating rates of the both test sections are considerably different, the feed was changed to a new one, and the acclimation operation was repeated for several days until the eating rate was stabilized, and the eating rates of the both test sections became almost equivalent. eating rate (%)=100×amount eaten (g)/initial feed weight (g) <Repellent Test>
After completion of the acclimation operation, the same feed (solid food CE-2 for breeding and raising, manufactured by CLEA Japan, Inc.) (about 10 g) was placed in the both test sections. […] After 1 hr from setting the filter paper, the door of the connection part between the residential section and the path was closed, and thereafter the door was opened. After lapse of one day from the start of the test, the feed remaining in the both test sections was weighed. When the test was continued for not less than one day, the feed in the both test sections was exchanged every other day, and the remaining feed was weighed every day.
The repellent rate was calculated by the following formula. The test section where the filter paper (diameter 70 mm, manufactured by Advantec Toyo Kaisha, Ltd.) treated with the test compound was set was taken as the treatment section, and the test section where the filter paper was not set was taken as the non-treatment section. repellent rate (%)=100×(amount eaten in non-treatment section−amount eaten in treatment section)/(amount eaten in non-treatment section+amount eaten in treatment section)

Row | SMILES | repellent rate (%) (number of observation days 1) | repellent rate (%) (number of observation days 3)
1 | c1ccc2scnc2c1 [Comparison compound C, reference compound] | 4 | –
2 | Sc1nc2ccccc2s1 [comparison compound A, reference compound] | 0 | –
3 | c1ccc(-c2nc3ccccc3s2)cc1 [comparison compound B, reference compound] | 0 | –
4 | CC(C)Cc1nc2ccccc2s1 [present compound 5, 2-isobutyl-1,3-benzothiazole] | 94 | –
5 | FC(F)(F)c1nc2ccccc2s1 [present compound 6, 2-trifluoromethyl-1,3-benzothiazole] | 100 | –
6 | Cc1nc2c(C)cccc2s1 [present compound 13, 2,4-dimethyl-1,3-benzothiazole] | 100 | 100
7 | CC1(C)Nc2ccccc2S1 [present compound 14, 2,2-dimethyl-2,3-dihydro-1,3-benzothiazole] | 100 | 92
